Results on two molecules are retold here after US20150087627A1, “COMBINATION OF KINASE INHIBITORS AND USES THEREOF” (Intellikine LLC, priority 2011, published 2015).

Where “and” joins values, the source holds several entries; their conditions need not be identical. Equal values may be shown once.

One test has as its system KRAS/PIK3CA colon model. As to the kind of experiment: KRAS/PIK3CA colon model (FIG. 19). It counts as in vivo.
Test [1] has as its system MDA-MB-361 human breast cancer xenografts. The experiment in a line: Antitumor activity and tumor regrowth, MDA-MB-361 xenografts (Example 42). The following applies: for MTV on Day 65: n = 4; for % TGI on Day 65: based on the control group on Day 65; for TGI: Day 29. Type of test: in vivo, Mus musculus. As to the method:
(room temperature), shielded from light. The test article Compound A was prepared in 5% NMP+95% PEG400 every 5 to 7 days and stored at approximately 25° C. (room temperature), shielded from light. The control article used in this study was 5% NMP+95% PEG400. Compounds were completely dissolved in NMP by sonication, followed by the addition of an appropriate volume of PEG400, and the final solution was vortexed and sonicated to ensure thorough mixing.
Low-passage MDA-MB-361 cells were grown in Eagle's Minimal Essential Medium (EMEM) media supplemented with 20% fetal bovine serum (FBS) and 1× penicillin/streptomycin (Invitrogen, Carlsbad, Calif., USA) until approximately 80% confluency was reached. Before injection, the cells were detached with GIBCO® trypsin (Invitrogen), washed twice with phosphate-buffered saline (PBS), and resuspended in Roswell Park Memorial Institute (RPMI) media (Invitrogen) without supplements. Cells were resuspended to a final concentration of 5×10^7 cells/mL in RPMI media without supplements. MDA-MB-361 cells (5.0×10^6 cells/animal in 0.1-mL injection volume) were implanted SC into the flank of female athymic nu/nu nude mice. The animals used in this study are described in the following table.
Female 5 to 6-week old female (athymic nu/nu) nude mice were inoculated SC in the flank with 5.0×10^6 MDA-MB-361 cells. Tumor growth was monitored with vernier calipers. The MTV was calculated using the formula V=W^2×L÷2. When the MTV reached approximately 235 mm^3, the animals were randomized into 4 treatment groups (n=8/group). Treatment started on Day 0. […] Tumor growth and body weight were measured twice weekly. Percent TGI and body weight change were calculated on Day 29. Four mice from each group were euthanized on Day 29 and tissues were harvested for pharmacodynamic studies. The remaining mice continued on study until Day 65, and tumor size and body weight in these mice were measured every 9 to 11 days.
Antitumor activity was determined by calculating the percent TGI using Equation 1: Percent TGI)=(MTV of the control group−MTV of a treated group) MTV of the control group×100
Tumor growth delay was determined by calculating the time until MTV in a given treatment group reached 1000 mm^3 versus the time until MTV in the control group reached 1000 mm^3.
The differences in trends of tumor growth over time between pairs of treatment groups were assessed using linear mixed-effects regression models. These models account for the fact that each animal was measured at multiple time points. A separate model was fit for each comparison, and the AUC for each treatment group was calculated using the predicted values from the model. The percent decrease in AUC (ΔAUC) relative to the reference group was then calculated.
A statistical analysis was performed with a linear mixed-effects regression model that takes into account the differences in trends of tumor growth between control and treated samples. Differences among mice were treated as random effects, and a compound symmetry covariance structure was used to model the variability between repeated tumor measurements for each mouse. Treatment comparisons were performed by using the fitted curves from the model to calculate the ΔAUC. The significance of the ΔAUC was assessed using permutation testing. All p values less than 0.05 were considered significant.
A combination score calculation was used to address the question of whether the effects of the combination treatments were more than additive (synergistic), additive, or subadditive (antagonistic) relative to the individual treatments. […] All p values less than 0.05 were considered significant.

Test [2] concerns HCT-116 human colorectal cancer xenografts. The experiment in a line: Antitumor activity, HCT-116 xenografts (Example 44). It counts as in vivo, Mus musculus. Particulars: Day 21. As to the method: Compound A was prepared in PEG400 (TCAL, San Diego, Calif., USA) every 7 days and stored at room temperature, shielded from light. The vehicle used in this study was PEG400 (Sigma, St. Louis, Mo., USA).
Low passage (passage number 8) HCT-116 cells (American Type Culture Collection ATCC, Manassas, Va., USA) were grown in McCoy's 5A (ATCC) media with 10% fetal bovine serum (FBS) (PAA Laboratories Pty Ltd, Morningside, Queensland, Australia) and supplied at a concentration of 5.0×10^7 cells/mL. HCT-116 cells (5.0×10^6/animal, 0.1-mL injection volume) were implanted SC into the flank of female athymic nude mice. The animals used in this study are described in the following table.
Female 9 to 10-week-old female Foxn1 nu Hsd:Athymic nude mice were inoculated SC in the flank with 5.0×10^6 HCT-116 cells. Tumor growth was monitored with vernier calipers. The MTV was calculated using the formula V=W^2×L/2. […] Tumor growth and body weight were measured twice per week. Percent TGI and body weight change were calculated on Day 21 while animals were on treatment. […] Antitumor activity was determined by calculating the percent TGI using Equation 1: % tumor growth inhibition (TGI)=(mean tumor volume [MTV] of the control group−MTV of a treated group)/MTV of the control group×100. […]
Drug combinations were assessed for synergy using observed AUC values. […]

Regarding `Nc1nc2cc(-c3ccc4ncc(C(=O)N5CCOCC5)n4c3)ccc2o1` [Compound A], the “activity in a KRAS/PIK3CA colon model” value in the test with KRAS/PIK3CA colon model is listed as “not effective”. Also, in test [1] (60 mg/kg PO QD until Day 29, regrowth), the “MTV on Day 65” value is 500 mm^3 and 511.4 ± 568^ mm^3. For the same molecule, the “% TGI on Day 65” value in test [1] (60 mg/kg PO QD until Day 29) was 69.5%. Moreover, the values for the TGI in test [1] (60.0 mg/kg PO QD) and in test [2] (120 mg/kg PO QD for 21 days) were 77.4% and 8.2%, respectively.

In the case of `CC(C)n1nc(-c2ccc3oc(N)nc3c2)c2c(N)ncnc21` [Compound B], in the test on KRAS/PIK3CA colon model, the “activity in a KRAS/PIK3CA colon model” value is “not effective”. For the same molecule, the TGI in test [1] (0.3 mg/kg PO QD for 30 days) is given as 71.1%; in test [2] (0.6 mg/kg PO QD 5on/2off for 21 days, not significantly different from control), 4.5%. In test [1] (0.3 mg/kg PO QD until Day 29, regrowth), the “MTV on Day 65” value was 649.6 ± 457.7 mm^3. Further, the “% TGI on Day 65” value in test [1] (0.3 mg/kg PO QD until Day 29) came to 61.3%. Moreover, the “MTV on Day 29” value in test [1] (0.3 mg/kg PO QD, n = 8) was 210.9 mm^3 and 210.9 ± 103.3 mm^3.
